Experimental data from ChEMBL document CHEMBL1201862, “PubChem BioAssay data set” (2004).
The source made the active and inactive calls. Rule as the data show it: actives have a measured IC50 and inactives only a lower limit.

These molecules were tested against Envelope glycoprotein gp160 (Human immunodeficiency virus 1, UniProt Q6QLK5) (assay: cell-free HIV fusion peptide-binding blockers – biochemical, uHTS, fluorescence dequenching, […] (AID 1986)).
Sequence of Envelope glycoprotein gp160 (Q6QLK5 whole entry, the tested form may be a part): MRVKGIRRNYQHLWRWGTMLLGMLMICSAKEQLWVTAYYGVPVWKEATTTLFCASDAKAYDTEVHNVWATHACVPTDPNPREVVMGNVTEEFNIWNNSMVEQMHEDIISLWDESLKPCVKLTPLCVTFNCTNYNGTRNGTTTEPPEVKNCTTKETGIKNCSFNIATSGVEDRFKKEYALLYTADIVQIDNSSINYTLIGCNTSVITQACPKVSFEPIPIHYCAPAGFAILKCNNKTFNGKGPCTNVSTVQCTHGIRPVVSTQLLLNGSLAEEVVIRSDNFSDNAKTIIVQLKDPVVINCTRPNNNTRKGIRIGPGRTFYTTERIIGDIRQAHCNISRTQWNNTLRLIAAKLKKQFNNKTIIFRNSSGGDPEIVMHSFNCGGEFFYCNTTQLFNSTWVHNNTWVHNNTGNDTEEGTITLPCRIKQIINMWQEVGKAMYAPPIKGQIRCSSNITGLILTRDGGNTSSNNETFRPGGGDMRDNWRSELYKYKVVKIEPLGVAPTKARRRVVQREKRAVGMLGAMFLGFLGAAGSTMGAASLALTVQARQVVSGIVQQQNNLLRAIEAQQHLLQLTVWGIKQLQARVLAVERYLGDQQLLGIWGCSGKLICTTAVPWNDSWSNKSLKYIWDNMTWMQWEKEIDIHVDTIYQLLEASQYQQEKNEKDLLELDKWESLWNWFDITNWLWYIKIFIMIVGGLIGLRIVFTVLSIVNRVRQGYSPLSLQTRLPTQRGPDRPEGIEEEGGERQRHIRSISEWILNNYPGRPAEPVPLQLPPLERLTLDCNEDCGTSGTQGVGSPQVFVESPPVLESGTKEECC
In the case of `CC(C)(C)c1cc(-c2csc(Nc3ccccc3)[n+]2Cc2ccc(C(=O)O)cc2)cc(C(C)(C)C)c1O`, the IC50 is reported as 12.9 µM (active). In the case of `O=C(O)CN1C(=O)/C(=C\c2cc(Br)ccc2OCc2ccc([N+](=O)[O-])cc2)SC1=S`, the IC50 is reported as 10.1 µM (active). For `Cc1cc(/C=C2\C(=N)N3N=C(S(C)(=O)=O)SC3=NC2=O)c(C)n1Cc1ccccc1`, the IC50 was 26.2 µM (active). With `Cc1c(CC(=O)O)c(=O)oc2c(C)c3occ(-c4ccc(Br)cc4)c3cc12` the IC50 was 27.6 µM (active).
